Source: article PMC8842743 (Journal of Alzheimer's Disease Reports, 2022)

System: healthy subjects
Test: Clinical safety: adverse events, ECG, laboratory tests
Format: in vivo, human

## COc1cnc(C(=O)Nc2ccc(F)c([C@]34CN(c5ncc(F)cn5)C[C@H]3CSC(N)=N4)c2)cn1 [LY3202626]
Phase 1 study
  tolerability: generally well tolerated
Healthy subjects, Phase 1
  clinical laboratory tests, including liver functions tests: no clinically significant findings
  electrocardiograms (including QTc interval), ophthalmologic examinations, alertness and attention: no clinically significant changes
Multiple doses 1 mg, N = 9
  Abnormal dreams: number of adverse events (number of subjects): 1 (1)
  Burning sensation: number of adverse events (number of subjects): 1 (1)
  Constipation: number of adverse events (number of subjects): 0 (0)
  Dizziness: number of adverse events (number of subjects): 0 (0)
  Dysgeusia: number of adverse events (number of subjects): 1 (1)
  Feces discoloured: number of adverse events (number of subjects): 0 (0)
  Headache: number of adverse events (number of subjects): 0 (0)
  Memory impairment: number of adverse events (number of subjects): 0 (0)
  Nightmare: number of adverse events (number of subjects): 1 (1)
  Post-lumbar puncture syndrome: number of adverse events (number of subjects): 1 (1)
  Postural orthostatic tachycardia syndrome: number of adverse events (number of subjects): 0 (0)
  Sunburn: number of adverse events (number of subjects): 0 (0)
Multiple doses 6 mg, N = 9
  Abnormal dreams: number of adverse events (number of subjects): 0 (0)
  Burning sensation: number of adverse events (number of subjects): 0 (0)
  Constipation: number of adverse events (number of subjects): 1 (1)
  Dizziness: number of adverse events (number of subjects): 0 (0)
  Dysgeusia: number of adverse events (number of subjects): 0 (0)
  Feces discoloured: number of adverse events (number of subjects): 2 (2)
  Headache: number of adverse events (number of subjects): 0 (0)
  Memory impairment: number of adverse events (number of subjects): 0 (0)
  Nightmare: number of adverse events (number of subjects): 0 (0)
  Post-lumbar puncture syndrome: number of adverse events (number of subjects): 0 (0)
  Postural orthostatic tachycardia syndrome: number of adverse events (number of subjects): 0 (0)
  Sunburn: number of adverse events (number of subjects): 0 (0)
Multiple doses 26 mg, n = 9
  Abnormal dreams: number of adverse events (number of subjects): 0 (0)
  Burning sensation: number of adverse events (number of subjects): 0 (0)
  Constipation: number of adverse events (number of subjects): 0 (0)
  Dizziness: number of adverse events (number of subjects): 2 (2)
  Dysgeusia: number of adverse events (number of subjects): 0 (0)
  Feces discoloured: number of adverse events (number of subjects): 9 (9)
  Headache: number of adverse events (number of subjects): 0 (0)
  Memory impairment: number of adverse events (number of subjects): 1 (1)
  Nightmare: number of adverse events (number of subjects): 0 (0)
  Post-lumbar puncture syndrome: number of adverse events (number of subjects): 0 (0)
  Postural orthostatic tachycardia syndrome: number of adverse events (number of subjects): 1 (1)
  Sunburn: number of adverse events (number of subjects): 0 (0)
Up to a single dose of 45 mg or multiple doses of 26 mg
  serious adverse events: no serious adverse events
